Results as given in patent US9566290B2, “Boron-containing small molecules” (Anacor Pharmaceuticals, Inc., priority 2005, dated 2017).
Values after ≈ are worked out from the molar mass of the structure shown.

How the values were obtained:
[1] = Water solubility (table of physicochemical properties)
[2] = test system: bacterial isoleucyl-tRNA synthetases; conditions: cited from earlier work
[3] = Nail penetration, 14-day dosing of radiolabeled compound (Hui protocol); format: in vitro ADME; conditions: washing, nail samples and supporting bed cotton ball samples; 14-day treatment
Experimental: Two nail penetration studies were performed based on the protocol in Hui et al., Journal of Pharmaceutical Sciences, 91(1): 189-195 (2002) (“Hui protocol”). The purpose of this study was to determine and compare the penetration and distribution of C10 in vehicle into the human nail plate in vitro relative to 8% ciclopirox w/w in commercial lacquer (Penlac®).
The study was composed of two groups. The compositions (weight %) of the dosage formulations are as follows: […]
Healthy human finger nail plates were collected from adult human cadavers and stored in a closed container at 0-4° C. Before the experiment, the nail plates were gently washed with normal saline to remove any contamination, then re-hydrated by placing them for three hours on a cloth wetted with normal saline. The nail samples were randomly selected into four groups.
Radioactivity of each group is approximately 0.19±0.01 and 0.22±0.03 μCi/10 μL solutions respectively, for ^14C—C10 (group A), and ^14C-ciclopirox (group C).
Surface washing was started in morning 10 min prior to next dosing, the surface of the nail was washed with cotton tips in a cycle, as follows:
A Teflon one-chamber diffusion cell (PermeGear, Inc., Hellertown, Pa.) was used to hold each nail. To approximate physiological conditions, a small cotton ball wetted with 0.1 mL normal saline was placed in the chamber to serve as a nail bed and provide moisture for the nail plate. Every 3 days, 0.1 mL normal saline was injected through the inlet into the chamber to keep the cotton ball wet. The nail plate was placed on a ledge inside the receptor (1.0 cm in diameter and 0.5 cm high). The ventral (inner) surface of the nail was placed face down and rested on the wet cotton ball. The cells were placed on a platform in a large glass holding tank filled with saturated sodium phosphate solution to keep the cells at a constant humidity of 40%.
After completion of the incubation phase, the nail plate was transferred from the diffusion cell to a clean copper nail holder for sampling process. The nail plate was inverted so that the ventral (nail bed) surface now faced up and the dorsal (outer) dosed surfaced faced down. The copper nail holder has an opening as it sits on top of the stage. When the sampling process initiated, the coarse adjustment was adjusted to move the position of the stage until the nail plate was just touching the tip of the cutter. Then the drill was turned on and the fine adjustment was turned to push the stage closer to the drill, removing a nail core sample. After the above process, approximate 0.40-0.50 mm in depth and 7.9 mm in diameter nail pulverized samples were harvested from the center of the ventral (nail bed) surface of the nail.
The powdered nail samples were collected into a glass scintillation vial and weighted. Aliquots of 5.0 mL Packard soluene-350 (Packard Instrument Company, Meriden, Conn.) was added to the scintillation vial to dissolve the powder. The upper part, the intermediate and dorsal layers of the center of the nail, including the area of application of the dose was cut in the same diameter as the sampled area and was then placed into a glass scintillation vial with 5.0 mL packard soluene-350. The rest of the nail was also placed in a glass scintillation vial with 5.0 mL packard soluene-350.
All radioactivity measurements were conducted with a Model 1500 Liquid Scintillation Counter (Packard Instrument Company, Downer Grove, Ill.). The counter was audited for accuracy using sealed samples of quenched and unquenched standards as detailed by the instrument manual. The ^14C counting efficiency is equal to or greater than 95%. All nail samples pre-treated with packard soluene-350 were incubated at 40° C. for 48 hours followed by the addition of 10 mL scintillation cocktail (HIONIC-FLUOR, Packard Instrument Company, Meriden, Conn.). […]

[4] = format: in vitro ADME, human
Experimental: C10, 5-fluoro-1,3-dihydro-1-phenyl-2,1-benzoxaborole, C1, and 5-fluoro-1,3-dihydro-1-(3-hydroxymethylphenyl)-2,1-benzoxaborole, formulated at 10% w/v in ethanol, were tested. A single aliquot (10 μl) of each formulation was dosed to the top of human nail plates using the nail penetration procedure described below, and allowed to stand for 3-days. The dosed area was washed, and then the cotton ball bed supporting the nail and the nail samples were collected at the end of the incubation period, stored at 4° C. and analyzed for drug using LC/MS/MS.
Details of the nail incubation have been previously described^9, 10. […] The supporting cotton ball under the nail was wetted by normal saline providing moisture for the nail plate, and the degree of hydration was monitored and controlled during the experiment. […]
LC/MS/MS (API3000, Applied Biosystems, Foster City, Calif.) was used to quantitate the amounts of non-radiolabeled oxaboroles, C10, 5-fluoro-1,3-dihydro-1-phenyl-2,1-benzoxaborole, C1, and 5-fluoro-1,3-dihydro-1-(3-hydroxymethylphenyl)-2,1-benzoxaborole in samples from the nail penetration studies. […] After centrifugation, the filtrate from the cotton ball samples was transferred to autosampler vials and analyzed by LC/MS/MS. […]

[5] = test system: Saccharomyces cerevisiae strain ATCC 201388; assay: MIC (NCCLS M27, YPD or synthetic defined media), haploid parental strain; format: cell-based; conditions: Saccharomyces cerevisiae, ATCC201388, Table 2; ATCC201388; read-out: MIC
Experimental: (§1) The haploid Saccharomyces cerevisiae strain ATCC 201388 was used in the selection of C10 resistant mutants. Spontaneous and EMS-induced resistant mutants were isolated from YPD agar plates containing 4×, 8×, 16×MIC of C10. All minimal inhibitory concentrations (MIC) were determined using NCCLS protocol M27 with the exception of using YPD or synthetic defined media. All yeast and molecular genetic manipulations were essentially performed as described by Guthrie C., et al., Methods in Enzymology, 350: Part B, (2002).
(§2) The minimal inhibitory concentration (MIC) was essentially performed following the NCCLS guidelines outlined in the M27 protocol with the exception of using YPD or synthetic defined media (SDM).

[6] = test system: S. cerevisiae C10 resistant mutants (CDC60 editing domain mutations); assay: MIC (NCCLS M27), spontaneous and EMS induced C10 resistant mutants; format: cell-based, Saccharomyces cerevisiae; conditions: for MIC: Saccharomyces cerevisiae, Table 2
Experimental: as §1
Resistant mutants appeared after 2 d incubation at 30° C. Frequency of resistance was determined by dividing the number of resistant mutants by the total number of cells plated as determined by plating dilutions of the overnight culture on YPD plates.
A 2.5 mL of the overnight culture, which was grown in YPD media, was centrifuged at 700×g for 5 minutes. The cell pellet was resuspended in 10 mL 50 mM potassium phosphate buffer, pH 7.0. The cell suspension was centrifuged again and the cell pellet was resuspended in phosphate buffer to obtain a cell density of 5×10^7 cells/mL as determined by counting the cells using a Petroff Hausser Counting Chamber (Horsham, Pa. USA). The cell suspension was shaken with 300 μL of EMS (Alfa Aesar, Ward Hill, Mass., USA) for 30 min. at 30° C. The mutagenesis was stopped by adding 10% (w/v) sodium thiosulfate (Sigma-Aldrich, St. Louis, Mo., USA), and the cells were pelleted by centrifugation at 700×g for 5 min. and resuspended in 1 mL sterile H2O. This was repeated once more before the cells were plated on YPD agar plates containing 1.6 μg/mL of C10.
as §2

With `OB1OCc2cc(Cl)ccc21` [C1, 5-chlorobenzo[c][1,2]oxaborol-1(3H)-ol] the solubility [1] was greater than 100 µg/mL.
For `C/C(=C\C(=O)OCCCCCCCCC(=O)O)C[C@@H]1OC[C@H](C[C@@H]2O[C@H]2[C@@H](C)[C@H](C)O)[C@@H](O)[C@H]1O` [Mupirocin, mupirocin], the “activity against the human homolog versus bacterial isoleucyl-tRNA synthetases (times less active)” value [2] is listed as “more than 1,000 times”.
In the case of `Cc1cc(C2CCCCC2)n(O)c(=O)c1` [ciclopirox], the “Cumulative radioactivity recoveries of carbon-14” value [3] is reported as 89±1.56% of applied dose, the “penetration of the nail plate, in words” value [4] is reported as “penetrates the nail plate poorly” and the MIC [5] is reported as 0.5 µg/mL (≈ 2.41 µM). For the same compound, the “resistance of C10 resistant mutants to other antifungals, in words” value [6] was “not resistant”, the MIC ([6]; C10 resistant mutant (C)) was 0.5 µg/mL (≈ 2.41 µM) and the MIC ([6]; C10 resistant mutant (G)) was 0.5 µg/mL (≈ 2.41 µM). It also gave an MIC ([6]; C10 resistant mutant (H)) of 0.5 µg/mL (≈ 2.41 µM).
